Tests used:
Assay in all cases: relative viability (nuclei count vs DMSO), 5 days (fraction); higher = more cells survive
AZD5582 + Foretinib = compound: C[C@@H](C(=O)N[C@@H](C1CCCCC1)C(=O)N2CCC[C@H]2C(=O)N[C@@H]3[C@@H](CC4=CC=CC=C34)OCC#CC#CCO[C@@H]5CC6=CC=CC=C6[C@@H]5NC(=O)[C@@H]7CCCN7C(=O)[C@H](C8CCCCC8)NC(=O)[C@H](C)NC)NC [AZD5582] + COc1cc2c(Oc3ccc(NC(=O)C4(C(=O)Nc5ccc(F)cc5)CC4)cc3F)ccnc2cc1OCCCN1CCOCC1 [Foretinib] (partner 0.25 µM)
In short: (§1)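 Lung cancer cell lines in 1536-well plates were dosed by pin tool the day after seeding, either with one drug alone or with a fixed anchor-drug dose plus five library-drug doses (not always all listed) in √10 steps. After 5 days, cells were fixed and their nuclei stained in one step (final 0.05% Triton X-100, 1% formaldehyde, 1 ug/ml Hoechst), then counted on 4× images. Relative viability is the nuclei count in treated wells divided by that in vehicle wells. Values are medians of duplicate plates.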

Temozolomide + Lapatinib = compound: Cn1nnc2c(C(N)=O)ncn2c1=O [Temozolomide] + CS(=O)(=O)CCNCc1ccc(-c2ccc3ncnc(Nc4ccc(OCc5cccc(F)c5)c(Cl)c4)c3c2)o1 [Lapatinib] (partner 2 µM)
In short: as §1

Temozolomide + OSI-027 = compound: Cn1nnc2c(C(N)=O)ncn2c1=O [Temozolomide] + COc1cccc2cc(-c3nc([C@H]4CC[C@H](C(=O)O)CC4)n4ncnc(N)c34)[nH]c12 [OSI-027] (partner 0.5 µM)
In short: as §1

[1] = compound: Cn1nnc2c(C(N)=O)ncn2c1=O [Temozolomide] + Nc1nc2[nH]cc(CCc3ccc(C(=O)N[C@@H](CCC(=O)O)C(=O)O)cc3)c2c(=O)[nH]1 [Pemetrexed] (partner 0.2 µM)
In short: as §1

Row | Cell Line | relative viability (AZD5582 + Foretinib; first compound 0.001581 µM) | relative viability (AZD5582 + Foretinib; first compound 0.005 µM) | relative viability (AZD5582 + Foretinib; first compound 0.01581 µM) | relative viability (AZD5582 + Foretinib; first compound 0.05 µM) | relative viability (Temozolomide + Lapatinib; first compound 0.2 µM) | relative viability (Temozolomide + Lapatinib; first compound 0.6325 µM) | relative viability (Temozolomide + Lapatinib; first compound 2 µM) | relative viability (Temozolomide + Lapatinib; first compound 6.325 µM) | relative viability (Temozolomide + Lapatinib; first compound 20 µM) | relative viability (Temozolomide + OSI-027; first compound 0.2 µM) | relative viability (Temozolomide + OSI-027; first compound 0.6325 µM) | relative viability (Temozolomide + OSI-027; first compound 2 µM) | relative viability (Temozolomide + OSI-027; first compound 6.325 µM) | relative viability (Temozolomide + OSI-027; first compound 20 µM) | relative viability ([1]; first compound 0.2 µM) | relative viability ([1]; first compound 0.6325 µM) | relative viability ([1]; first compound 2 µM) | relative viability ([1]; first compound 6.325 µM) | relative viability ([1]; first compound 20 µM)
1 | SK-LU-1 | 0.794 | 0.772 | 0.843 | 0.472 | 1.08 | 0.906 | 0.803 | 0.377 | 0.407 | 0.408 | 0.341 | 0.334 | 0.24 | 0.272 | 1.06 | 1.01 | 0.875 | 0.495 | 0.522
2 | SK-MES-1 | 0.878 | 1.29 | 0.967 | 1.24 | 0.478 | 0.466 | 0.463 | 0.505 | 0.458 | 0.694 | 0.624 | 0.642 | 0.591 | 0.65 | 1.01 | 0.911 | 0.975 | 0.92 | 0.866
3 | SW 1573 | 0.736 | 1 | 0.885 | 0.853 | 1.13 | 1.17 | 1.04 | 0.897 | 1.02 | 0.672 | 0.66 | 0.734 | 0.608 | 0.721 | 0.907 | 0.833 | 0.845 | 0.867 | 0.846
4 | UMC-11 | 0.995 | 1.12 | 1.03 | 1.05 | 1.09 | 1.06 | 1.09 | 0.894 | 0.685 | 0.554 | 0.469 | 0.566 | 0.467 | 0.447 | 0.758 | 0.712 | 0.835 | 0.805 | 0.588
